Laboratory results reported in BindingDB's records for doi:10.1046/j.1471-4159.1998.70062252.x (Paris-Sud University, 1998).
Values joined by “and” are separate entries in the source; they are usually repeats but may differ in a detail not shown here. Identical values can stand only once.

Molecular target: 5-hydroxytryptamine receptor 4 (Homo sapiens, UniProt Q13639)
Sequence (Q13639 whole entry): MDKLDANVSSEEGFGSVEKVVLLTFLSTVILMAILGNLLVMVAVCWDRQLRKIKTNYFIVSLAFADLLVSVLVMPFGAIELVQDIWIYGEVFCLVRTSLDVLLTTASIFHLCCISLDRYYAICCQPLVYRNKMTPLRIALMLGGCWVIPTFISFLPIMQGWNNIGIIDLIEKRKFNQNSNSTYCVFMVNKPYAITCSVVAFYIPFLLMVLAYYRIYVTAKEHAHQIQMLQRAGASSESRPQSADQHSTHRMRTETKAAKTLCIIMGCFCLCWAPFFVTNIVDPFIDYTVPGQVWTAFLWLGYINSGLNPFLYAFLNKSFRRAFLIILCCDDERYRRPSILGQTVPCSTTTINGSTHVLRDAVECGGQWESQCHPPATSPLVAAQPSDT

`Cn1cc(C(=O)OCC2CCN(CCNS(C)(=O)=O)CC2)c2ccccc21` [GR 113808] gave a Ki of 0.07 nM.

`CCn1c(=O)n(C(=O)NC2CC3CCC(C2)N3C)c2ccccc21` (stereo not drawn) [BIMU 1] was tested, and the Ki was 373 nM and 123 nM and 66 nM and 38.8 nM.

With `COc1cc(N)c(Cl)cc1C(=O)NC1CN2CCC1CC2` (stereo not drawn) [ZACOPRIDE,R] the Ki was over 10000 nM.
